Reference: paper PMC11279401, “Inhibitory Effect of Selected Guaianolide and Germacranolide Sesquiterpene Lactones on Nitric Oxide Production” (Molecules, 2024)
Entries after “also recorded” stand apart in the source; their conditions may differ. Where two headings read alike, the source gives them in different places. Blank lines part the entries; values can stand above or below the molecule they belong to.

How the values were obtained:
[1] = tested on: NO production by mouse peritoneal cells; assay: Nitric oxide assay (Griess), LPS + IFN-γ-activated mouse peritoneal cells; format: cell-based; details: 24 h; for IC50: (LPS + IFN-γ)-activated mouse peritoneal cells, concentrations 0.01–50.0 μM tested, read-out: Inhibition of nitric oxide production, IC50; for Effect on IFN-γ + LPS-activated NO production (in words): 10 µM screening, mouse peritoneal cells
Procedure: The tested compounds were dissolved in dimethyl sulfoxide (DMSO) to make stock solutions at a concentration of 50 mM, and then stored at −20 °C. Their biological activities were screened using a final concentration of 10 µM. […] This concentration of DMSO was devoid of any effects in biological assays.
(§1) The animals were killed by cervical dislocation and injected intraperitoneally with 8 mL of sterile saline. Pooled peritoneal cells collected from the mice (n = 4–6 in individual experiments) were washed and re-suspended in a culture medium. The cell suspension was seeded onto 96-well round-bottom microplates (Costar, Corning, NY, USA). Final samples were supplemented to 100 µL volumes, containing 1–2 × 10^6 cells per well, depending on the assay. Cultures were maintained at 37 °C, 5% CO2 in a humidified incubator (Heraeus Holding GmbH, Hanau, Germany). The complete RPMI-1640 culture medium (Sigma-Aldrich, St. Louis, MO, USA) contained 10% heat-inactivated fetal bovine serum, 2 mM L-glutamine, 50 µg/mL gentamicin, and 5 × 10^−5 M 2-mercaptoethanol (all Sigma-Aldrich).
High-output NO production was induced by a mixture of lipopolysaccharide (LPS from E. coli 0111:B4, 0.1 ng/mL; Sigma) and murine recombinant interferon-γ (IFN-γ, 5 ng/mL; R&D Systems, Minneapolis, MN, USA) in mouse peritoneal cells (2 × 10^6/mL). The tested compounds were applied concomitantly with both priming stimuli, and peritoneal macrophages were cultured for 24 h. The concentration of nitrites in the supernatants of the cell cultures was taken as a measure of NO production. It was detected in individual cell-free samples (50 µL) incubated for 5 min at ambient temperature with an aliquot of Griess reagent (1% sulfanilamide/0.1% naphtylendiamine/2.5% H3PO4). Absorbance at 540 nm was recorded using a microplate spectrophotometer (Tecan, Grödig, Austria). A nitrite calibration curve was used to convert absorbance values to µM of nitrite.

[2] = Cytotoxicity assay (WST-1), viability of mouse peritoneal cells; format: cell-based; details: 10 µM compound, mouse peritoneal cells 1.0 × 10^6/mL, 24 h, read-out: Cell viability (O.D.) relative to untreated controls; for viability at 24 h, 10 µM: primary mouse peritoneal cells (macrophages)
Procedure: (§2) The tested compounds were dissolved in dimethyl sulfoxide (DMSO) to make stock solutions at a concentration of 50 mM, and then stored at −20 °C. Their biological activities were screened using a final concentration of 10 µM.
as §1, with “Germany).” for “Germany). The complete RPMI-1640 culture medium (Sigma-Aldrich, St. Louis, MO, USA) contained 10% heat-inactivated fetal bovine serum, 2 mM L-glutamine, 50 µg/mL gentamicin, and 5 × 10^−5 M 2-mercaptoethanol (all Sigma-Aldrich).”
(§3) The viability of mouse peritoneal cells was determined using a colorimetric assay based on the cleavage of tetrazolium salt WST-1 by mitochondrial dehydrogenases in viable cells (Roche Diagnostics, Mannheim, Germany). The cells (1 × 10^6/mL) were cultured as described above. The viability of primary murine macrophages was tested in the presence of 10 µM of the respective test substance for […]. After the first 24 h of cultivation, WST-1 was added (10 µL), and the cells were kept in a Heraeus incubator at 37 °C for an additional 3 h. Triton X-100 (1%) was used as a common reference in the cytotoxicity assay. Optical density was evaluated at wavelengths of 450–690 nm.

mouse peritoneal cells = assay: as above; format: cell-based; details: 10 µM compound, primary murine macrophages
Procedure: as §2
as §1, with “Germany).” for “Germany). The complete RPMI-1640 culture medium (Sigma-Aldrich, St. Louis, MO, USA) contained 10% heat-inactivated fetal bovine serum, 2 mM L-glutamine, 50 µg/mL gentamicin, and 5 × 10^−5 M 2-mercaptoethanol (all Sigma-Aldrich).”
as §3

[3] = tested on: secretion of cytokines TNF-α, IL-1β, IL-6, IL-10 and chemokine RANTES by murine peritoneal cells; assay: Cytokine assays (ELISA), LPS-stimulated murine peritoneal cells; format: cell-based, mouse; details: 1 µg/mL LPS, 21 h, IL-6, IL-10, RANTES
Procedure: as §1
(§4) The concentration of PGE2 was determined in the supernatants of cells cultured (2 × 10^6/mL) after the addition of 10 ng/mL LPS for an interval of 6 h. The levels of cytokines TNF-α, IL-1β, IL-6, and IL-10, and the chemokine RANTES were determined in the supernatants of cells cultured (2 × 10^6/mL) in the presence of 1 µg/mL LPS for an interval 21 h. The extent of PGE2 release and cytokine secretion was determined using enzyme-linked immune-absorbent assay (ELISA) kits according to the manufacturer’s instructions (R&D Systems, Minneapolis, MN, USA).

RAW264.7 macrophages = details: cited from earlier work
[4] = tested on: production of PGE2 by murine peritoneal cells; assay: Prostaglandin E2 assay (ELISA), LPS-stimulated murine peritoneal cells; format: cell-based, mouse; details: 10 ng/mL LPS, 6 h, murine peritoneal cells 2.0 × 10^6/mL
Procedure: as §1, §4

[5] = tested on: polymorphonuclear lymphocytes; set-up: method as in PMID 30653318; details: cited from earlier work

IC50 [1]: > 100 µM
Molecule: CC1=CC(=O)C2=C(C)CCC3C(OC(=O)C3(C)OC3OC(CO)C(O)C(O)C3O)C12 (stereo not drawn) [Compound 9, 11β-hydroxyleukodin glucoside]

IC50 [1]: 3.2 µM
Molecule: C=C1C(=O)O[C@@H]2/C=C(\C)CC/C=C(\C)CC[C@@H]12 [Compound 16, costunolide]
viability at 24 h, 10 µM [2]: ~50%
Cytotoxicity / effect on cell viability (in words) (mouse peritoneal cells): moderate toxicity; also recorded: remarkable cytotoxicity

IC50 [1]: 90.2 µM
Molecule: CC=C(C)C(=O)OC1(C)C(=O)OC2C=C(C)CCC=C(C)CCC(OC(C)=O)C21 (stereo not shown) [Compound 21, laserolide]
Cytotoxicity / effect on cell viability (in words) (mouse peritoneal cells): did not show any cytotoxicity

IC50 [1]: > 100 µM
Molecule: CC1=CC(=O)C2=C(C)CC(OC3OC(CO)C(O)C(O)C3O)C3C(OC(=O)C3(C)O)C12 (stereo not drawn) [Compound 10, 11β-hydroxydeacetylmatricarin glucoside]

IC50 [1]: > 100 µM
Molecule: C=C1C(=O)OC2C1CCC(C)(O)C1CC(OC3OC(CO)C(O)C(O)C3O)C(=C)C21 (stereo not shown) [Compound 12, ixerin D]

IC50 [1]: 2.79 µM
Molecule: C=C1C(=O)O[C@H]2[C@H]1CC/C(C)=C/CC[C@@]1(C)O[C@@H]21 [Compound 19, parthenolide]
viability at 24 h, 10 µM [2]: 81.1 ± 6.34%
Effect on IFN-γ + LPS-activated NO production (in words) [1]: substantially decreased the production of NO

IC50 [1]: 2.81 µM
Molecule: C=C1C(=O)O[C@@H]2[C@H]3C(CO)=CC(=O)C3=C(C)CC[C@@H]12 [Compound 13, 8-deoxylactucin]
Effect on secretion of cytokines (in words) [3]: did not interfere
Cytotoxicity / effect on cell viability (in words) (mouse peritoneal cells): without any suppression of cell viability
Effect on IFN-γ + LPS-activated NO production (in words) [1]: significant NO-inhibitory effect
IC50 (RAW264.7 macrophages; RAW264.7 macrophages, read-out: Inhibition of nitric oxide production, IC50): 13 µM
Effect on immune-activated production of PGE2 (in words) [4]: did not interfere

IC50 [1]: > 100 µM
Molecule: C=C1CC(O)C2C(=C)C(=O)OC2C2C1CC(OC1OC(CO)C(O)C(O)C1O)C2C (stereo not shown) [Compound 11, 11,13-dehydro-8-epiisolippidiol glucoside]

IC50 [1]: 4.38 µM
Molecule: eupatolide [Compound 17]
Effect on IFN-γ + LPS-activated NO production (in words) [1]: significant NO-inhibitory effect
IC50 (RAW264.7 macrophages; murine macrophage line RAW264.7, read-out: Inhibitory potency against NO production, concentration range): 1.54 to 6.43 µM

More lines, now with the values behind:

Molecule: C=C1CC(O)C2C(C)C(=O)OC2C2C1CC(OC1OC(CO)C(O)C(O)C1O)C2C (stereo not shown) [Compound 5, 4,8-diepiisolippidiol glucoside]
IC50 [1]: > 100 µM

Molecule: CC1=C2C(=O)C=C(COC3OC(CO)C(O)C(O)C3O)C2C2OC(=O)C(C)C2CC1 (stereo not shown) [Compound 7, crepidiaside B]
IC50 [1]: > 100 µM

Molecule: C=C1C(=O)O[C@@H]2C[C@@H](C)[C@@H]3C=CC(=O)[C@@]3(C)[C@@H](O)[C@H]12 [Compound 15, helenalin]
IC50 [1]: 0.74 µM

Molecule: C=C(CO)C(=O)O[C@H]1CC(=C)[C@@H]2C[C@H](O)C(=C)[C@@H]2[C@H]2OC(=O)C(=C)[C@@H]21 [Compound 14, cynaropicrin]
viability at 24 h, 10 µM [2]: ~50%
Cytotoxicity / effect on cell viability (in words) (mouse peritoneal cells): cytotoxic; also recorded: remarkable cytotoxicity
IC50 [1]: 9.87 µM

Molecule: CC1=C2C(=O)C=C(CO)[C@@H]2[C@H]2OC(=O)[C@@H](C)[C@@H]2[C@@H](O)C1 [Compound 4, 11β,13-dihydrolactucin]
IC50 [1]: > 100 µM

Molecule: CC1=CC(=O)C2=C(C)CC(OC3OC(CO)C(O)C(O)C3O)C3C(C)C(=O)OC3C12 (stereo not shown) [Compound 6, deacetylmatricarin glucoside]
IC50 [1]: > 100 µM

Molecule: CC1=CC(=O)C2=C(C)C[C@H](O)[C@@H]3[C@H](OC(=O)[C@H]3C)[C@@H]12 [Compound 3, deacetylmatricarin]
IC50 [1]: > 100 µM

Molecule: C=C1C(=O)O[C@@H]2/C=C(\C)CC/C=C(\C)C[C@@H](OC(=O)/C(=C/CO)CO)[C@@H]12 [Compound 18, eupatoriopicrin]
viability at 10 µM [2]: ~10%
Cytotoxicity / effect on cell viability (in words) (mouse peritoneal cells): highly toxic; also recorded: remarkable cytotoxicity
IC50 [1]: 1.65 µM
Concentration up to which not toxic [5]: ≤ 2.5 µM

Molecule: C=C1C[C@@H](O)[C@@H]2[C@H](OC(=O)[C@H]2C)[C@H]2[C@H](C)[C@@H](O)C[C@@H]12 [Compound 2, 8-epiisolippidiol]
IC50 [1]: > 100 µM

Molecule: C=C1C(O)CC2C(C)C(=O)OC2C2C(=C)C(OC3OC(CO)C(O)C(O)C3O)CC12 (stereo not shown) [Compound 8, ixerin F]
IC50 [1]: > 100 µM

Molecule: C=C1C[C@@H](O)[C@@H]2[C@H](OC(=O)[C@H]2C)[C@H]2[C@H](C)C(=O)C[C@@H]12 [Compound 1, 8-epiisoamberboin]
Cytotoxicity / effect on cell viability (in words) (mouse peritoneal cells): without any suppression of cell viability
NO production relative to controls stimulated with IFN-γ + LPS ([1]; 10 µM compound, mouse peritoneal cells 2.0 × 10^6/mL): about 25%
Effect on IFN-γ + LPS-activated NO production (in words) [1]: significant NO-inhibitory effect
IC50 [1]: 23.8 µM

Molecule: C=C1C(=O)OC2C1CC(O)C(C)=CCCC1(C)OC21 (stereo not shown) [Compound 20, 9-hydroxyparthenolide]
viability at 10 µM [2]: 77 ± 5.09%
Effect on IFN-γ + LPS-activated NO production (in words) [1]: substantially decreased the production of NO
IC50 [1]: 5.64 µM
